Experimental data published in US10202385B2, “Use of substituted 2,3-dihydroimidazo[1,2-C]quinazolines” (BAYER INTELLECTUAL PROPERTY GMBH, priority 2011, dated 2019).
Structures can show the parent of a compound that is named as a salt.

Key:
Type in all cases: cell-based
T47D cells [1] = assay: Apoptosis induction (PARP cleavage, Caspase-Glo 3/7) in T47D cells
Procedure: (§1) Tumor cells were seeded in 384-well plates at a concentration of 1000-2500 cells/well/25 μL depending on cell lines. After overnight incubation, cells were treated with compounds (5 μL). Then, Caspase 3/7 activities were determined at 24 to 48 hours post-treatment using Caspase-Glo3/7 assay kits (Promega Cat # G8212).
The combination effects of PI3K inhibitors and other agent were evaluated using combination index isobologram analysis (Chou et al. Pharmacology Reviews 2006). The efficacy parameters were the median effect in a 72-hour cell proliferation assay and the 24- or 48-hour Caspase 3/7 activity assay described above. Briefly, cells were plated in 384-well plate with 25 μl medium. […] The corresponding component doses of D1 and D2 at the E(I)C50/E(I)C90 were calculated and used for plotting isobolograms. The multiple drug effect was analyzed as described by Chou et al. (Pharmacology Reviews 2006) and the combination index was calculated using the formula: Combination Index=[D1x]/D1′+[D2x]/D2′ where D1x and D2x refer to the Drug 1 and Drug 2 concentration at EC50/IC50 or EC90/IC90, respectively, in combination; and D1′ and D2′ refer to the EC50/IC50 or EC90/IC90 values of D1 and D2, respectively, as single agents. […]

breast tumor cell lines = assay: 72-hour tumor cell proliferation assay, molecular profiling in 24 breast tumor cell lines
Procedure: (§2) In accordance with the invention, the compound were assessed in a cell-based assay that measures the capacity of the compounds to inhibit tumor cell proliferation following a 72-hour drug exposure. Cell viability was conducted by Invitrogen (breast Oncopanel, Invitrogen, USA), or was determined using CellTiter-Glo® Luminescent Cell Viability Assay (Promega) as follows. Cells were plated at 300-5000 cells/well depending on the cell lines or microtiter plates (96- or 384-well) in 100 μL growth medium in 96-well and 20 μL growth medium in 384-well microtiterplate. For each cell line assayed, cells were plated onto a separate plate for determination of luminescence at t=0 hour and t=72 hour time points. Following overnight incubation at 37° C., luminescence values for the t=0 samples were determined. Dose plates for the t=72 hour time points were treated with compounds diluted into growth medium. Cells were then incubated for 72 hours at 37° C. Luminescence values for the t=72 hour samples were determined. For data analysis, briefly, t=0 values were subtracted from those determined for the t=72 hour time points, for both the treated and untreated samples. Percent differences in luminescence between drug-treated and control values were used to determine the percent inhibition of growth.
Using a set of breast cancer cell lines representing differential receptor expression status and genetic alterations of PIK3CA and PTEN, the anti-proliferative and apoptotic effects of Compound A were investigated.

T47D cells [2] = assay: 72-hour tumor cell proliferation assay in T47D cells; details: T47D (PIK3CA mut)
Procedure: as §2, with “growth. […]” for “growth.”

MDA-MB-468 tumor cells [3] = assay: Tumor cell proliferation assay in MDA-MB-468 cells; details: PTEN null, EGFR high, Bcl-2 negative MDA-MB-468
Procedure: as §2, with “Dose plates for the t=72 hour time points were treated with compounds diluted into growth medium. Cells were then incubated for 72 hours at 37° C.” left out
The combination effects of PI3K inhibitors and other agent were evaluated using combination index isobologram analysis (Chou et al. Pharmacology Reviews 2006). […]

[4] = test system: breast tumor cells (BT-20, BT-474, KPL-4); assay: Apoptosis induction (PARP cleavage, Caspase 3/7) in breast tumor cells
Procedure: as §1

MDA-MB-468 tumor cells [5] = assay: Apoptosis induction (PARP cleavage) in MDA-MB-468 cells; details: PTEN null, EGFR high, Bcl-2 negative MDA-MB-468
Procedure: as §1
The cellular expression of the mTORC2 component Rictor was assessed by western blot analysis (A). Induction of PARP cleavage by compound A treatment in combination with inhibition of mTORC1 or mTORC2 (B). shControl and shRictor MDA-MB468 cells were treated with indicated agents for 48 hours, and cleavage of PARP was analyzed. GAPDH was used as an internal protein control.

SMILES	sensitization to apoptosis in combination with Compound A (T47D cells [1]; T47D cells, ABT-737 combined with Compound A)	IC50 (breast tumor cell lines; breast tumor cells with HER2 expression, n=8 cell lines, proliferation)	IC50 (breast tumor cell lines; breast tumor cells with PIK3CA mutation, n=7 cell lines, proliferation)	IC50 (breast tumor cell lines; wild type PIK3CA and HER2 negative breast cancer cells, n=12, proliferation)	anti-proliferative activity IC50 (T47D cells [2])	inhibition of proliferation (MDA-MB-468 tumor cells [3])	apoptosis induction ([4]; PIK3CA mutant and or HER2 positive breast tumor cells (such as BT20, BT474))	inducing apoptosis ([4]; breast cancer cells expressing HER2 and/or PIK3CA mutation in the absence of Bcl-2 (conclusion))	apoptosis after exposure ([4]; tumor cells that lack Bcl-2 expression (KPL-4, BT-474, BT-20))	apoptosis induction (T47D cells [1]; T47D (PIK3CA mut), high level of Bcl-2)	induction of apoptosis (MDA-MB-468 tumor cells [5])
CN(C)CC[C@H](CSc1ccccc1)Nc1ccc(S(=O)(=O)NC(=O)c2ccc(N3CCN(Cc4ccccc4-c4ccc(Cl)cc4)CC3)cc2)cc1[N+](=O)[O-] [ABT-737, reference compound]	sensitized T47D cells to apoptosis										
COc1c(OCCCN2CCOCC2)ccc2c1N=C(NC(=O)c1cnc(N)nc1)N1CCN=C21 [Compound A, 2-amino-N-[7-methoxy-8-(3-morpholin-4-ylpropoxy)-2,3-dihydroimidazo[1,2-c]quinazolin-5-yl]pyrimidine-5-carboxamide dihydrochloride]		19 nM	17 nM	773 nM	single-digit	insensitive	strong activity	extremely effective	immediately underwent apoptosis	resistant to apoptosis	resistant
